# Measurements reported in patent US20070066682A1, “Arylalkylamine vanadium (V) salts for the treatment and/or prevention of Diabetes mellitus” (priority 2005, published 2007).
# Key:
# [1] = test system: isolated mouse adipocytes; experiment: Glucose transport (2-DG) in isolated mouse adipocytes; assay type: cell-based; conditions: 100 μM
# Experimental: Adipose cells from FVB mice were incubated for 45 minutes in basal conditions (Basal) or in the presence of 100 nM insulin (Ins), and different concentrations of hexaquis(benzylammonium) decavanadate (B6V10) in the absence or in the presence of 1 mM semicarbazide (SCZ) and thereafter, 2-DG transport was measured over 5 min.
# [2] = test system: protein kinase B; experiment: Protein kinase B phosphorylation in isolated rat adipocytes; assay type: cell-based
# Experimental: Isolated fat cells were disrupted for total membrane preparation by hypo-osmotic lysis in a 20 mM HES buffer and an antiprotease and antiphosphatase cocktail as reported by Abella et al. (2003, Diabetes 52: 1004-1013). Protein concentrations were determined by the Bradford method (Bradford, 1976, Anal. Biochem. 72: 248-254) with gamma-globulin as protein concentration standard. Immunoprecipitation and immunoblot assays were performed as previously described by Abella et al. (2004, Id.) with the use of a monoclonal antiphosphotyrosine antibody for the immunoprecipitation and an anti-insulin receptor antibody for immunoblotting, respectively. SDS-polyacrylamide gel electrophoresis was performed on membrane proteins following conventional procedures. Proteins were transferred to Immobilon and immunoblotting was performed as reported by Castello et al. (1994, J. Biol. Chem. 269: 5905-5912).
# The mechanism of action of B6V10 was investigated in isolated rat adipocytes. Adipose cells from Wistar rats were incubated for different times in the presence of 25 μM hexaquis(benzylammonium) decavanadate (B6V10). Cells were also incubated in the presence of insulin (100 nM, 45 min), decavanadate (25 μM, 45 min) or semicarbazide (1 mM, 45 min). Subsequently, 2-deoxyglucose uptake (results shown in FIG. 7A), tyrosine phosphorylation of insulin receptor (FIG. 7B), phospho-Thr^308-protein kinase B (FIG. 7C) and phospho-Ser^473-protein kinase B (FIG. 7D) was measured. […] The phosphorylation of protein kinase B induced by B6V10 was parallel to activation of glucose transport (FIG. 7C and 7D).
# The effects of incubation with semicarbazide or phosphatidylinositol 3-kinase inhibitors were also investigated. Adipose cells were incubated with B6V10 (25 μM, 45 min) in the absence or presence of wortmannin (2 μM, 45 min), LY294002 (10 μM, 45 min) or semicarbazide (1 mM, 45 min) and thereafter 2-deoxyglucose uptake was determined during 5 min.
substance,measurement,setting,value
hexaquis(benzylammonium) decavanadate (V) dihydrate [Entry B6V10],stimulation of glucose transport (% increase),[1],93%
same,protein kinase B phosphorylation,"[2]; 25 μM, rat adipocytes",rapidly stimulated protein kinase B
same,time at which protein kinase B phosphorylation was detectable,"[2]; 25 μM, rat adipocytes",≤ 2.5 min
same,protein kinase B phosphorylation in the presence of semicarbazide,"[2]; B6V10 25 μM, semicarbazide 1 mM, 45 min",blocked by semicarbazide
